Experiment [1] has as its system forearms of human volunteers. Kind of experiment: Further human vasoconstriction testing. The format is in vivo. Conditions: for AUC (sum of the individual vasoconstriction scores through 24 hours): steroid 0.1 mM alone; for effect on the vasoconstriction activity of BEM-17V: BEM-17V 0.1 mM; for effect on the vasoconstriction activity of BEM-17V / effect on the vasoconstriction activity of LE: enhancer 0.1-0.5 mM; for effect on the vasoconstriction activity of LE: LE 0.1 mM; for synergism with LE: LE:enhancer ratios 1:1, 1:2, 1:3, 1:4 and 1:5. As to the method:
The resultant LE and BEM-17V solutions were then mixed (1:1) with vehicle only, or with the Δ^1-CA or Δ^1-MeCA solutions, so that LE solutions (0.1 mM) and BEM-17V solutions (0.1 mM) containing various concentrations of Δ^1-CA (0 to 0.5 mM) or Δ^1-MeCA (0 to 0.5 mM) were obtained. The resultant mixtures (20 μl) were loaded onto circular patches (6.5 mm diameter) that were attached to a water impervious adhesive film (3M). After the evaporation of ethanol, the patches and film were applied to the forearms of human volunteers for 4 hours. […] The grading scale was as follows: 0, normal skin; 1, slight pallor; 2, pallor with at least two corners outlined; 3, even pallor with a clear outline of the application sites; 4, very intense pallor. […] As before, an overall total for each concentration was then obtained.

Experiment [2] deals with forearm of a human volunteer. Kind of experiment: Human vasoconstriction (blanching) testing. Type of experiment: in vivo. The settings on record: for AUC (sum of the individual vasoconstriction scores through 36 hours): compound alone; for vasoconstriction activity: tested alone; for effect on the vasoconstrictor activity of loteprednol etabonate: co-applied, 1:5 molar ratio loteprednol etabonate:enhancer, especially at the lower concentrations. The procedure:
Test compounds at varying mM concentrations as noted below were dissolved in ethanol/propylene glycol (9/1) solution, and 20 μL of the mixtures were applied to filter paper discs, 0.7 cm in diameter. After ethanol evaporation, each disc was attached to waterproof adhesive tape, then applied to the forearm of a human volunteer and left in place for 4 hours. Groups of 8 forearms were tested at each concentration. The intensity of vasoconstriction was judged at 2, 4, 6, 8, 10, 12, 18, 24 and 36 hours after removal of the discs.
The grading scale for the vasoconstriction activity was as follows: 0, normal skin; 1, slight pallor of indistinct outline; 2, pallor with at least two corners outlined; 3, even pallor with a clear outline of the application sites; 4, very intense pallor. The scores were totaled at each concentration at each time after removal to give a total score at each time interval and an overall total for each concentration. The higher the total score, the greater the blanching or anti-inflammatory effect.

In experiment [3] the target is T1, receptor (Rattus norvegicus, UniProt P06536).
T1 sequence (P06536 1-795): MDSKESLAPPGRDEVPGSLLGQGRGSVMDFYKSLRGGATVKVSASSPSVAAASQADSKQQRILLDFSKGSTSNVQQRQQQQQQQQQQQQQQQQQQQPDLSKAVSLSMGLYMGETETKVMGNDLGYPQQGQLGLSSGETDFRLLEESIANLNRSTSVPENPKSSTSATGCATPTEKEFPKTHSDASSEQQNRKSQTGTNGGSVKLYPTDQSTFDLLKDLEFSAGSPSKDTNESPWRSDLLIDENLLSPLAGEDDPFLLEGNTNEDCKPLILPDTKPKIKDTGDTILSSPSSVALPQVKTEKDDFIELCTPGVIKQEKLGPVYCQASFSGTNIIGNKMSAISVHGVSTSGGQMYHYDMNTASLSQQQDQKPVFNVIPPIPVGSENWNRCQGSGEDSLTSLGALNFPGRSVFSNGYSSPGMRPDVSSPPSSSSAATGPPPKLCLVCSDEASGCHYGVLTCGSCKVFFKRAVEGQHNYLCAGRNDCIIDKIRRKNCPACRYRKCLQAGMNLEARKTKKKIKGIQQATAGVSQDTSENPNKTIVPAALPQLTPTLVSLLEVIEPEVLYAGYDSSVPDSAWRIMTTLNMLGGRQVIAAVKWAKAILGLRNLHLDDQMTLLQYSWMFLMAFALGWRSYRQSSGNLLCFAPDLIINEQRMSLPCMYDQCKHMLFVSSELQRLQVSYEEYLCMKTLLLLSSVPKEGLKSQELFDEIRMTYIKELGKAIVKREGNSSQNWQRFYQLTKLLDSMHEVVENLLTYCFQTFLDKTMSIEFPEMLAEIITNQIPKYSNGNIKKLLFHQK
The settings on record: medium containing 10^−5M cortienic acid as competitor; cited from earlier work.

Where [4] appears, read: control (0 mM) of the Δ^1-CA series.
Setting [5] is: control (0 mM) of the Δ^1-MeCA series.

As to `CCOC(=O)O[C@]1(C(=O)OCCl)CC[C@H]2[C@@H]3CCC4=CC(=O)C=C[C@]4(C)[C@H]3[C@@H](O)C[C@@]21C` [Loteprednol Etabonate, chloromethyl 17α-ethoxycarbonyloxy-11β-hydroxyandrosta-1,4-dien-3-one-17β-carboxylate, reference compound], the “AUC (sum of the individual vasoconstriction scores through 24 hours)” value was 99 in experiment [1] (setting [4]) and 114 in experiment [1] (setting [5]). Moreover, the “AUC (sum of the individual vasoconstriction scores through 36 hours)” value in experiment [2] (0.1 mM, 20 μL on disc, 4 h application, 8 forearms) is 9; in experiment [2] (0.5 mM), 39; in experiment [2] (1 mM), 90; in experiment [2] (5 mM) it was 117; in experiment [2] (10 mM), 122. Besides, in experiment [2], the vasoconstriction activity result was “significant activity”.

Take `CCOC(=O)OC1(C(=O)O)CCC2C3CCC4=CC(=O)C=CC4(C)C3C(O)CC21C` (stereo not drawn) [the corresponding 17α-ethyl carbonate, 17α-ethoxycarbonyloxy-11β-hydroxyandrost-1,4-dien-3-one-17β-carboxylic acid]: the “intrinsic activity in receptor binding studies” value (from here on “intrinsic activity”) in experiment [3] is “inactive”.

As for `COC(=O)[C@@]1(O)CCC2C3CCC4=CC(=O)C=CC4(C)C3C(O)CC21C` (stereo partly drawn) [Δ^1-Cortienic Acid Methyl Ester, methyl 11β,17α-dihydroxyandrosta-1,4-dien-3-one-17β-carboxylate], in experiment [1], the “effect on the vasoconstriction activity of BEM-17V” value is recorded as “no activity-increasing effect”. Also, the “effect on the vasoconstriction activity of LE” value in experiment [1] is recorded as “increased the vasoconstriction activity of LE”. In experiment [1], the “synergism with LE” value is “synergistic results”. Moreover, the “effect on the vasoconstrictor activity of loteprednol etabonate” value in experiment [2] is listed as “significantly enhanced”. In addition, the “AUC (sum of the individual vasoconstriction scores through 36 hours)” value in experiment [2] (0.5 mM), in experiment [2] (2.5 mM), in experiment [2] (5 mM), in experiment [2] (25 mM) and in experiment [2] (50 mM) was 0 throughout. Moreover, the vasoconstriction activity result in experiment [2] was “neither Δ^1-cortienic acid nor Δ^1-cortienic acid methyl ester had any vasoconstriction activity”.

`CC12C=CC(=O)C=C1CCC1C2C(O)CC2(C)C1CC[C@]2(O)C(=O)O` (stereo partly drawn) [Δ^1-Cortienic Acid, 11β,17α-dihydroxyandrosta-1,4-dien-3-one-17β-carboxylic acid]: the “intrinsic activity” value in experiment [3] is “inactive”. The “effect on the vasoconstriction activity of BEM-17V” value in experiment [1] is given as “no activity-increasing effect”. Moreover, the “effect on the vasoconstriction activity of LE” value in experiment [1] is listed as “increased the vasoconstriction activity of LE”. Further, in experiment [1], the “synergism with LE” value is listed as “synergistic results”. Also, the “effect on the vasoconstrictor activity of loteprednol etabonate” value in experiment [2] is “significantly enhanced”. For the same compound, the “AUC (sum of the individual vasoconstriction scores through 36 hours)” value in experiment [2] (0.5 mM), in experiment [2] (2.5 mM), in experiment [2] (5 mM), in experiment [2] (25 mM) and in experiment [2] (50 mM) was 0 each time. Moreover, in experiment [2], the vasoconstriction activity entry is on record as “neither Δ^1-cortienic acid nor Δ^1-cortienic acid methyl ester had any vasoconstriction activity”.

As for “betamethasone 17-valerate [Betamethasone Valerate, reference compound]”, the “AUC (sum of the individual vasoconstriction scores through 24 hours)” value in experiment [1] (setting [4]) is on record as 107; in experiment [1] (setting [5]), 112.

For the compound “chloromethyl 17α-ethoxycarbonyloxy-11β-hydroxyandrosta-1,4-dien-3-one-17β-carboxylate [Loteprednol Etabonate, reference compound]”, the “intrinsic activity” value in experiment [3] is recorded as “intrinsically active”.

Source of the values: US7923441B2, “Enhancement of activity and/or duration of action of soft anti-inflammatory steroids for topical or other local application” (priority 2003, dated 2011).
